Measurements reported in ChEMBL document CHEMBL4765266, “Design, synthesis and structure-activity relationships of 4-phenyl-1H-1,2,3-triazole phenylalanine derivatives as novel HIV-1 capsid inhibitors with promising antiviral activities” (Eur J Med Chem, 2020).

What was measured:
[1] = tested on: Human immunodeficiency virus 1; assay: Antiviral activity against HIV1 NL4-3 infected in human TZM-bl cells assessed as reduction in virus induced cytopathic effect measured after 2 days by luciferase gene expression assay; format: functional, organism-based; details: Human immunodeficiency virus 1, NL4-3, TZM-bl, 48 h
[2] = tested on: TZM; assay: Cytotoxicity against in human TZM-bl cells assessed as reduction in cell viability measured after 2 days by CytoTox-Glo cytotoxicity assay; details: 48 h
[3] = in vitro; details: human, TZM-bl cells
Description: Selectivity index, ratio of CC50 for human TZM-bl cells to EC50 for HIV1 NL4-3 infected in human TZM-bl cells

[4] = Binding affinity to HIV1 NL4-3 capsid protein hexamer assessed as dissociation constant by SPR analysis; design: species or system Human immunodeficiency virus 1
[5] = Binding affinity to HIV1 NL4-3 capsid protein monomer assessed as dissociation constant by SPR analysis; design: species or system Human immunodeficiency virus 1
[6] = human, microsomes, 1 h
[7] = human, microsomes, 1 h; remark: listed apart in the source
[8] = Metabolic stability in human plasma assessed as parent compound remaining after 10 mins by LC/MS/MS method; format: ADME, cell-free
[9] = Metabolic stability in human plasma assessed as parent compound remaining after 30 mins by LC/MS/MS method; format: ADME, cell-free; details: 0.5 h
[10] = Metabolic stability in human plasma assessed as parent compound remaining after 60 mins by LC/MS/MS method; format: ADME, cell-free; details: 1 h

| SMILES | EC50 [1] [µM] | CC50 [2] [µM] | selectivity ratio [3] | other results |
| --- | --- | --- | --- | --- |
| COc1ccc(N(C)C(=O)[C@H](Cc2ccccc2)NC(=O)Cn2cc(-c3cccc(NC(=O)c4ccccc4OC)c3)nn2)cc1 | > 16.2 | > 16.2 | – | – |
| COc1ccc(N(C)C(=O)[C@H](Cc2ccccc2)NC(=O)Cn2cc(-c3ccc(NC(=O)c4ccc(-c5ccccc5)cc4)cc3)nn2)cc1 | 12.2 | > 15 | > 1.23 | – |
| COc1ccc(N(C)C(=O)[C@H](Cc2ccccc2)NC(=O)Cn2cc(-c3ccccc3NC(=O)c3ccc(C)cc3)nn2)cc1 | > 16.6 | > 16.6 | – | – |
| COc1ccc(N(C)C(=O)[C@H](Cc2ccccc2)NC(=O)Cn2cc(-c3ccc(NC(=O)c4ccc(F)cc4)cc3)nn2)cc1 | 13 | > 16.5 | > 1.27 | – |
| COc1ccc(N(C)C(=O)[C@H](Cc2ccccc2)NC(=O)Cn2cc(-c3cccc(N)c3)nn2)cc1 | 3.3 | > 20.6 | > 6.25 | Kd [4]: 4 µM; Kd [5]: 15.8 µM |
| COc1ccc(N(C)C(=O)[C@H](Cc2ccccc2)NC(=O)Cn2cc(-c3ccccc3NC(=O)c3ccc(F)cc3)nn2)cc1 | 3.46 | > 16.5 | > 4.76 | – |
| COc1ccc(C(=O)Nc2ccccc2-c2cn(CC(=O)N[C@@H](Cc3ccccc3)C(=O)N(C)c3ccc(OC)cc3)nn2)cc1 | > 16.2 | > 16.2 | – | – |
| COc1ccc(C(=O)Nc2cccc(-c3cn(CC(=O)N[C@@H](Cc4ccccc4)C(=O)N(C)c4ccc(OC)cc4)nn3)c2)cc1 | > 16.2 | > 16.2 | – | – |
| COc1ccc(N(C)C(=O)[C@H](Cc2ccccc2)NC(=O)Cn2cc(-c3ccc(NC(=O)c4ccccc4)cc3)nn2)cc1 | 12.9 | > 17 | > 1.32 | – |
| COc1ccc(N(C)C(=O)[C@H](Cc2ccccc2)NC(=O)Cn2cc(-c3ccc(NC(=O)c4ccc(C#N)cc4)cc3)nn2)cc1 | 12.4 | > 16.3 | > 1.32 | – |
| COc1ccc(N(C)C(=O)[C@H](Cc2ccccc2)NC(=O)Cn2cc(-c3ccc(NC(C)=O)cc3)nn2)cc1 | > 19 | > 19 | – | – |
| COc1ccc(N(C)C(=O)[C@H](Cc2ccccc2)NC(=O)Cn2cc(-c3ccccc3NC(C)=O)nn2)cc1 | 3.99 | > 19 | > 4.76 | – |
| COc1ccc(N(C)C(=O)[C@H](Cc2ccccc2)NC(=O)Cn2cc(-c3ccc(NC(=O)c4cccc(F)c4)cc3)nn2)cc1 | 12.7 | > 16.5 | > 1.3 | – |
| COC(=O)c1ccc(C(=O)Nc2ccccc2-c2cn(CC(=O)N[C@@H](Cc3ccccc3)C(=O)N(C)c3ccc(OC)cc3)nn2)cc1 | > 15.5 | > 15.5 | – | – |
| COc1ccc(N(C)C(=O)[C@H](Cc2ccccc2)NC(=O)Cn2cc(-c3ccccc3N)nn2)cc1 | 3.92 | > 20.6 | > 5.27 | – |
| COc1ccc(N(C)C(=O)[C@H](Cc2ccccc2)NC(=O)Cn2cc(-c3ccccc3NC(=O)c3ccc(C#N)cc3)nn2)cc1 | > 16.3 | > 16.3 | – | – |
| COc1ccc(N(C)C(=O)[C@H](Cc2ccccc2)NC(=O)Cn2cc(-c3ccccc3NC(=O)c3cccc(F)c3)nn2)cc1 | 3.3 | > 16.5 | > 4.99 | Kd [4]: 4.99 µM; Kd [5]: 6.8 µM |
| COc1ccc(N(C)C(=O)[C@H](Cc2ccccc2)NC(=O)Cn2cc(-c3cccc(NC(=O)c4cccc(F)c4)c3)nn2)cc1 | 9.56 | > 16.5 | > 1.72 | – |
| COc1ccc(N(C)C(=O)[C@H](Cc2ccccc2)NC(=O)Cn2cc(-c3ccc(NC(=O)c4ccccc4OC)cc3)nn2)cc1 | > 16.2 | > 16.2 | – | – |
| COc1ccc(N(C)C(=O)[C@H](Cc2ccccc2)NC(=O)Cn2cc(-c3ccc(NC(=O)c4ccc(C)cc4)cc3)nn2)cc1 | > 16.6 | > 16.6 | – | – |

| SMILES | EC50 [1] [µM] | CC50 [2] [µM] | selectivity ratio [3] | other results |
| --- | --- | --- | --- | --- |
| C[C@]12CC[C@H]3[C@@H](CCC4=CC(=O)CC[C@@]43C)[C@@H]1CC[C@@H]2O [TESTOSTERONE] | – | – | – | t1/2 [6]: 7.4 min; CLH [7]: 188.3 µL/min/mg |
| COc1ccc(N(C)C(=O)[C@H](Cc2ccccc2)NC(=O)Cn2cc(-c3cccc(NC(=O)c4ccc(F)cc4)c3)nn2)cc1 | > 16.5 | > 16.5 | – | – |
| COc1ccc(N(C)C(=O)[C@H](Cc2ccccc2)NC(=O)Cn2cc(-c3ccccc3NC(=O)c3cccc(OC)c3)nn2)cc1 | 12.8 | > 16.2 | > 1.27 | – |
| COc1ccc(N(C)C(=O)[C@H](Cc2ccccc2)NC(=O)Cn2cc(-c3cccc(NC(C)=O)c3)nn2)cc1 | 14.8 | > 19 | > 1.28 | – |
| COc1ccc(N(C)C(=O)[C@H](Cc2ccccc2)NC(=O)Cn2cc(-c3ccc(NC(=O)c4ccccc4F)cc3)nn2)cc1 | 11.9 | > 16.5 | > 1.39 | – |
| COc1ccc(N(C)C(=O)[C@H](Cc2ccccc2)NC(=O)Cn2cc(-c3ccc(N)cc3)nn2)cc1 | 13.6 | > 20.6 | > 1.51 | – |
| COc1ccc(N(C)C(=O)[C@H](Cc2ccccc2)NC(=O)Cn2cc(-c3cccc(NC(=O)c4ccc(C)cc4)c3)nn2)cc1 | > 16.6 | > 16.6 | – | – |
| COc1ccc(N(C)C(=O)[C@H](Cc2ccccc2)NC(=O)Cn2cc(-c3cccc(NC(=O)c4ccc(C#N)cc4)c3)nn2)cc1 | 12.9 | > 16.3 | > 1.27 | – |
| COc1ccc(N(C)C(=O)[C@H](Cc2ccccc2)NC(=O)Cn2cc(-c3ccccc3NC(=O)c3ccccc3OC)nn2)cc1 | 8.41 | > 16.2 | > 1.92 | – |
| COC(=O)c1ccc(C(=O)Nc2cccc(-c3cn(CC(=O)N[C@@H](Cc4ccccc4)C(=O)N(C)c4ccc(OC)cc4)nn3)c2)cc1 | > 15.5 | > 15.5 | – | – |
| COC(=O)c1ccc(C(=O)Nc2ccc(-c3cn(CC(=O)N[C@@H](Cc4ccccc4)C(=O)N(C)c4ccc(OC)cc4)nn3)cc2)cc1 | > 15.5 | > 15.5 | – | – |
| COc1ccc(N(C)C(=O)[C@H](Cc2ccccc2)NC(=O)Cn2cc(-c3cccc(NC(=O)c4cccc(OC)c4)c3)nn2)cc1 | > 16.2 | > 16.2 | – | – |
| COc1ccc(N(C)C(=O)[C@H](Cc2ccccc2)NC(=O)Cn2cc(-c3cccc(NC(=O)c4ccccc4)c3)nn2)cc1 | 12.7 | > 17 | > 1.33 | – |
| COc1ccc(C(=O)Nc2ccc(-c3cn(CC(=O)N[C@@H](Cc4ccccc4)C(=O)N(C)c4ccc(OC)cc4)nn3)cc2)cc1 | > 16.2 | > 16.2 | – | – |
| COc1ccc(N(C)C(=O)[C@H](Cc2ccccc2)NC(=O)Cn2cc(-c3ccc(NC(=O)c4cccc(OC)c4)cc3)nn2)cc1 | > 16.2 | > 16.2 | – | – |
| COc1ccc(N(C)C(=O)[C@H](Cc2ccccc2)NC(=O)Cn2cc(-c3ccccc3NC(=O)c3ccc(-c4ccccc4)cc3)nn2)cc1 | > 15 | > 15 | – | – |
| CC(C)[N+](C)(CCOC(=O)C1c2ccccc2Oc2ccccc21)C(C)C.[Br-] [PROPANTHELINE BROMIDE] | – | – | – | Stabilty [8]: 47.7%; Stabilty [9]: 9.1%; Stabilty [10]: 0.6% |
| COc1ccc(N(C)C(=O)[C@H](Cc2ccccc2)NC(=O)Cn2cc(-c3ccccc3NC(=O)c3ccccc3)nn2)cc1 | 3.74 | > 17 | > 4.54 | – |
| COc1ccc(N(C)C(=O)[C@H](Cc2ccccc2)NC(=O)Cn2cc(-c3cccc(NC(=O)c4ccc(-c5ccccc5)cc4)c3)nn2)cc1 | > 15 | > 15 | – | – |
| COc1ccc(N(C)C(=O)[C@H](Cc2ccccc2)NC(=O)Cn2cc(-c3cccc(NC(=O)c4ccccc4F)c3)nn2)cc1 | 13.5 | > 16.5 | > 1.22 | – |
